Converted amounts (≈) assume the structure as drawn.
Experiment: Aqueous solubility of compound at pH 6.5 by shake-flask method
Format: physicochemical
Details: aqueous medium

Row | solubility thermodynamic | Compound
1 | < 5 µg/mL | COc1ccc(C(=O)O)cc1NC(=S)NC(=O)c1cc2ccccc2o1
2 | 6 µg/mL (≈ 15.2 µM) | COc1cc(-c2nc3ccccc3s2)cc(Br)c1OCC(=O)O
3 | < 1 µg/mL | O=C(O)c1cccc(NC(=S)NC(=O)c2ccc(-c3ccccc3)cc2)c1

The next lines start with the compound.

Row | Compound | solubility thermodynamic
4 | Oc1ccc(-n2cc(-c3ccc4cc(OCCOCCN5CCOCC5)ccc4n3)nn2)cc1 | 48.5 µg/mL (≈ 105 µM)
5 | Oc1cc2c(cc1C(c1ccc(C(F)(F)F)cc1)N1CCOCC1)OCO2 (configuration not stated) | 27.6 µg/mL (≈ 72.4 µM)
6 | Cc1ccc2oc(=O)n(Cc3cccc(O)c3)c2c1 | 21.9 µg/mL (≈ 85.8 µM)
7 | COCCOc1ccc2nc(-c3cn(-c4ccc(O)cc4)nn3)ccc2c1 | 3.6 µg/mL (≈ 9.93 µM)
